Reference: US10967078B2, “Radiolabelled mGluR2 PET ligands” (Janssen Pharmaceutica NV, priority 2014, dated 2021)

What was measured:
mGlu1 = mGlu1 (Homo sapiens, UniProt Q13255); assay: Selectivity for mGluR2 versus mGluR1; format: biochemical
mGlu3 = mGlu3 (Homo sapiens, UniProt Q14832); assay: Selectivity for mGluR2 versus mGluR3; format: biochemical
mGlu4 = mGlu4 (Homo sapiens, UniProt Q14833); assay: Selectivity for mGluR2 versus mGluR4; format: biochemical
mGlu5 = mGlu5 (Homo sapiens, UniProt P41594); assay: Selectivity for mGluR2 versus mGluR5; format: biochemical
Chain of mGlu5 (P41594 21-1212): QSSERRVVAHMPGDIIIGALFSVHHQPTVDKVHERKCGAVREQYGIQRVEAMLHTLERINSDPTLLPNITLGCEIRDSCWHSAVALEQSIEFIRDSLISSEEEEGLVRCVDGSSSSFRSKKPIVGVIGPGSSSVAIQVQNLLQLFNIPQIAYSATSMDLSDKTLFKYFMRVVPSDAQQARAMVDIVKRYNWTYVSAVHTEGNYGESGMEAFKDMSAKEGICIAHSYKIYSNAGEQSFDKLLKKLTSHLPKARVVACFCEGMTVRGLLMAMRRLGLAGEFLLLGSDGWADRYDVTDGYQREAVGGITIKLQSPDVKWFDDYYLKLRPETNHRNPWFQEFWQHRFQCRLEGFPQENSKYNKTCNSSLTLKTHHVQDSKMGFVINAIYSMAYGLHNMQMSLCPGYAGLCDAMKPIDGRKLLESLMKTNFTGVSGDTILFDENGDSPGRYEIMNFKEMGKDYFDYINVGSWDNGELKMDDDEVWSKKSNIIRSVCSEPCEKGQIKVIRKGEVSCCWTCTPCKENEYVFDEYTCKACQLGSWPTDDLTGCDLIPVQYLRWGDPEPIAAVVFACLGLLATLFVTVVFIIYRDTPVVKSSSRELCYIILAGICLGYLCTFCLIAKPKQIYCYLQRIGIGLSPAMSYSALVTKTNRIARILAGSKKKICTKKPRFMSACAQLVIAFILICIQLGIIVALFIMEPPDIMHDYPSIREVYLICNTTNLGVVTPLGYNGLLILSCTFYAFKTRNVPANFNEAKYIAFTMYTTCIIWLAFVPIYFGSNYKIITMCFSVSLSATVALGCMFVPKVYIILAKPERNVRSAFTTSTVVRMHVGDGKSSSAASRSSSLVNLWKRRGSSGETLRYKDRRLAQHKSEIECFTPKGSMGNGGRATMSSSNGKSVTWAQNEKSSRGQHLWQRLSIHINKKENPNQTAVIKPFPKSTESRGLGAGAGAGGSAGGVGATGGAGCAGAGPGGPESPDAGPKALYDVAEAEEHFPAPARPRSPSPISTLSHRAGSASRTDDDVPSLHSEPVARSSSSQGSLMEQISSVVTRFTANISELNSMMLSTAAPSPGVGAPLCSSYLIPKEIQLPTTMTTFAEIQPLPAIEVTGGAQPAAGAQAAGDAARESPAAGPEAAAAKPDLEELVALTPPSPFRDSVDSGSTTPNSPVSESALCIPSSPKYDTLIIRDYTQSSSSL

mGlu7 = mGlu7 (Homo sapiens, UniProt Q14831); assay: Selectivity for mGluR2 versus mGluR7; format: biochemical
mGlu8 = mGlu8 (Homo sapiens, UniProt O00222); assay: Selectivity for mGluR2 versus mGluR8; format: biochemical
Chain of mGlu8 (O00222 34-908): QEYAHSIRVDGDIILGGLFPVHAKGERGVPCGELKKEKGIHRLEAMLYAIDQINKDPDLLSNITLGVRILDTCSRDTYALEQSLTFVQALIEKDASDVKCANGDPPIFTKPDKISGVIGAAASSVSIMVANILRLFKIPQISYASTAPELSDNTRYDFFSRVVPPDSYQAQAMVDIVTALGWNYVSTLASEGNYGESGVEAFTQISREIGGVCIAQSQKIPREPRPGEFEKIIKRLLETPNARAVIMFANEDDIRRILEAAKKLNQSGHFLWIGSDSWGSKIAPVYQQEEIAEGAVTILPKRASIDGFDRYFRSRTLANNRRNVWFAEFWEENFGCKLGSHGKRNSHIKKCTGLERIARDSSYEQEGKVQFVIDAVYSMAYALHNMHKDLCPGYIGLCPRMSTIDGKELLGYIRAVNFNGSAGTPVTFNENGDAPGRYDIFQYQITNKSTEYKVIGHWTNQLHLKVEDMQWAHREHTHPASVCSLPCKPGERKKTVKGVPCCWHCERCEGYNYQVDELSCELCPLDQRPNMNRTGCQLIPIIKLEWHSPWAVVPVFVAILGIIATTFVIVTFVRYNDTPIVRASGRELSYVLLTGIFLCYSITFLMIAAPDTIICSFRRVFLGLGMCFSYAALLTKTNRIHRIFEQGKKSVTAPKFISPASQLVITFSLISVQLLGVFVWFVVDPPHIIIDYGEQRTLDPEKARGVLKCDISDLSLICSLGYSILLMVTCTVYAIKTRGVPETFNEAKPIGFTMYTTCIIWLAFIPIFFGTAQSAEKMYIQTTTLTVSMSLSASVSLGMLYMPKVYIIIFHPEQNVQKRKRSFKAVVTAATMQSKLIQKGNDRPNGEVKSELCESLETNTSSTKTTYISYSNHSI

human mGlu2 receptor = target: T1, human mGlu2 receptor (Homo sapiens, UniProt Q14416); assay: [35S]GTPγS binding assay, membranes from CHO cells transfected with the human mGlu2 receptor (NAM activity); format: biochemical
T1 construct: expressed in transfected cells; host or cells: CHO cells
Experimental: The [^35S]GTPγS binding assay is a functional membrane-based assay used to study G-protein coupled receptor (GPCR) function whereby incorporation of a non-hydrolysable form of GTP, [^35S]GTPγS (guanosine 5′-triphosphate, labelled with […] ^35S), is measured. The G-protein a subunit catalyzes the exchange of guanosine 5′-diphosphate (GDP) by guanosine triphosphate (GTP) and on activation of the GPCR by an agonist, [^35S]GTPγS, becomes incorporated and cannot be cleaved to continue the exchange cycle (Harper (1998) Current Protocols in Pharmacology 2.6.1-10, John Wiley & Sons, Inc.). […]
CHO-cells were cultured to pre-confluence and stimulated with 5 mM butyrate for 24 h. […] Protein concentration was determined by the Bradford method (Bio-Rad, USA) with bovine serum albumin as standard.
Measurement of mGluR2 negative allosteric modulatory activity of test compounds was performed as follows. […] Membrane-bound radioactivity was counted in a Topcount.
The concentration-response curves of representative compounds of the present invention were generated using the Lexis software interface (developed at J&J). Data were calculated as % of the control glutamate response, defined as the response that is generated upon addition of an EC80-equivalent concentration of glutamate. […] The concentration producing half-maximal inhibition was calculated as the IC50. […]

Chain of mGlu3 (Q14832 23-879): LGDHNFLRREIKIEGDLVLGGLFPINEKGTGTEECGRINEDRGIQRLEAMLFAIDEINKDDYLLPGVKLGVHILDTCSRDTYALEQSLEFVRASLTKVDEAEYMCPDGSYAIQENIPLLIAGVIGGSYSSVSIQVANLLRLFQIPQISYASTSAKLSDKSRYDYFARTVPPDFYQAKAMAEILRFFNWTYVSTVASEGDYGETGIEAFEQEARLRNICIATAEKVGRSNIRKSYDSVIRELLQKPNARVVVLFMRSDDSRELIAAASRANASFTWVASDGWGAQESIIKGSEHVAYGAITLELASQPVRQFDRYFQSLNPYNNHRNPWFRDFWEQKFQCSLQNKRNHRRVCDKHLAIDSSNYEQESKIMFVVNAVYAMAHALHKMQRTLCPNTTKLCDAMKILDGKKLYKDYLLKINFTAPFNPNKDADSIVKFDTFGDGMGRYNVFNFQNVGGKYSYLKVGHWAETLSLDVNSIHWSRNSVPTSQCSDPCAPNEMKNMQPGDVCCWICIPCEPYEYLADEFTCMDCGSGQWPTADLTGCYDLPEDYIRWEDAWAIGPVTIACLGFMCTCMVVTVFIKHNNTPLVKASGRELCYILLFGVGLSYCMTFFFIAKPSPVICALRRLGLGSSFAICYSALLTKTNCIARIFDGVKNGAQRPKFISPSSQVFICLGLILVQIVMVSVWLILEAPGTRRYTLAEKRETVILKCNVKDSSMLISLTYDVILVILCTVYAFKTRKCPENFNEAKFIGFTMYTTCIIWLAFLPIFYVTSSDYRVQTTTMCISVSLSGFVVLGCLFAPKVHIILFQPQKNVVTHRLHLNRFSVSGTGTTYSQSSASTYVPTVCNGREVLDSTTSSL
Chain of mGlu4 (Q14833 33-912): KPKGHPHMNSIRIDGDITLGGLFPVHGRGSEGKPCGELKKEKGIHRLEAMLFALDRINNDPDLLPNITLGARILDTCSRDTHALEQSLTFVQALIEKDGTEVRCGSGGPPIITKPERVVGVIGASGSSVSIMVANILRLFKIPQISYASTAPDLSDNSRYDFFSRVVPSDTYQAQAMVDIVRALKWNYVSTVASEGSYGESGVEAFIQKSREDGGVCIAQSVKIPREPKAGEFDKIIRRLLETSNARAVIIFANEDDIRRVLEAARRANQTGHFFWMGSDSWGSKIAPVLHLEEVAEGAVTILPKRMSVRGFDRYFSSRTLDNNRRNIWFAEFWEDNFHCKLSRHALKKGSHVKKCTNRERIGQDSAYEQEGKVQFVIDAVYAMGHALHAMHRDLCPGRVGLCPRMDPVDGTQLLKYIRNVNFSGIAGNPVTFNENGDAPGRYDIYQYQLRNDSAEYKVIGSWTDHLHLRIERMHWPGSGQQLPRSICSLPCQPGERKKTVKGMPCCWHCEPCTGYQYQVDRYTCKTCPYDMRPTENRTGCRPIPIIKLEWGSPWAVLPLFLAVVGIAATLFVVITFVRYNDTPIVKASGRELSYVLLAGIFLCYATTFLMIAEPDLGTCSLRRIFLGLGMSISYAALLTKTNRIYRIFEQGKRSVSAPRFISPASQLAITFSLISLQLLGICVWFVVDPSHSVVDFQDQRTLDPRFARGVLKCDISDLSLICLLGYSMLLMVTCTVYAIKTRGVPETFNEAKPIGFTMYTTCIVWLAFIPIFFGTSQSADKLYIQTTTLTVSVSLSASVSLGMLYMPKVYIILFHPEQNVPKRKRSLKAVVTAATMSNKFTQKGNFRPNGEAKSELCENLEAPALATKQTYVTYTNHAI
Chain of mGlu1 (Q13255 19-1194): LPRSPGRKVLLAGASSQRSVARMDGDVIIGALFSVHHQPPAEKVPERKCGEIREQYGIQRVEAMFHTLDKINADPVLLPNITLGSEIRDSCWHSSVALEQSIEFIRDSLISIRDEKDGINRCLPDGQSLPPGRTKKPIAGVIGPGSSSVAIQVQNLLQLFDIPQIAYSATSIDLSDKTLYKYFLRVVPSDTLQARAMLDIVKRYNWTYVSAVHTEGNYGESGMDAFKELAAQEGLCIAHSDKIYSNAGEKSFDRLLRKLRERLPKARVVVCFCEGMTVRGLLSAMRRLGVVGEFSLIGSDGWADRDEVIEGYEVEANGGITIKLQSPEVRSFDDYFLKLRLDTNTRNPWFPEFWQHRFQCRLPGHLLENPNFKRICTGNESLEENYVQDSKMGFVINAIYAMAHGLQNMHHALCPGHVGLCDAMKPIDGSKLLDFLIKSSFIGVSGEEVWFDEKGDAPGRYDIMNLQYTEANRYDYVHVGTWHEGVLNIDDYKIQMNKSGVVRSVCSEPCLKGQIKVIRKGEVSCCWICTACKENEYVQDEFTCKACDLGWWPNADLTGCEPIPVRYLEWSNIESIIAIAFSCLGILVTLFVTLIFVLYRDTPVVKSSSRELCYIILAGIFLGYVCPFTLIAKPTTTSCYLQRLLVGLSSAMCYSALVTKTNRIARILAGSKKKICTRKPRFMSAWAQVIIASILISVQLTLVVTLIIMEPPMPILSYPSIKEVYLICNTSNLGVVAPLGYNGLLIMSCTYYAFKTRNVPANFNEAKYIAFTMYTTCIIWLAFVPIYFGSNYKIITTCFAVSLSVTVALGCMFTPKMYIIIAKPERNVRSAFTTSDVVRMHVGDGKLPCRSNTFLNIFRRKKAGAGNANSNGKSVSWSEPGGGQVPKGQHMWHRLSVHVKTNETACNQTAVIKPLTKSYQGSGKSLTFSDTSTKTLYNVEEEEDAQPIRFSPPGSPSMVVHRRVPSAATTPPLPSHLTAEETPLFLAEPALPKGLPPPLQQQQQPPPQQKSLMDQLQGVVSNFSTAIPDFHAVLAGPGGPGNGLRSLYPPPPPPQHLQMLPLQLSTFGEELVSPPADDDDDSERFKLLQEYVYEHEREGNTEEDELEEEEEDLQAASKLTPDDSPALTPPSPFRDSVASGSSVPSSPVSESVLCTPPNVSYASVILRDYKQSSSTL

| SMILES | Selectivity over mGlu1 (mGlu1) | Selectivity over mGlu3 (mGlu3) | Selectivity over mGlu4 (mGlu4) | Selectivity over mGlu5 (mGlu5) | Selectivity over mGlu7 (mGlu7) | Selectivity over mGlu8 (mGlu8) | melting point [°C] | IC50 (human mGlu2 receptor; glutamate 60 μM (~EC80), read-out: GTPγS - hmGluR2 anGT pIC50 (converted)) [nM] | Emax (human mGlu2 receptor; maximal % inhibition relative to the control glutamate response, read-out: GTPγS - hmGluR2 anGT Emax) [%] |
| --- | --- | --- | --- | --- | --- | --- | --- | --- | --- |
| Cc1cc(-c2cnn3c2C(=O)N(c2ccc(C(F)(F)F)cc2)C[C@@H]3C)ccn1 [Co. No. 1, (7S)-7-Methyl-3-(2-methylpyridin-4-yl)-5-[4-(trifluoromethyl)phenyl]-6,7-dihydropyrazolo[1,5-a]pyrazin-4(5H)-one] | 1122.0 | 25.7 | 5623.4 | 1122.0 | 1122.0 | 1122.0 |  |  |  |
| CNc1cc(-c2cnn3c2C(=O)N(c2ccc(C(F)(F)F)cc2)C[C@@H]3C)ccn1 [Co. No. 2, (7S)-7-Methyl-3-[2-(methylamino)-4-pyridyl]-5-[4-(trifluoromethyl)phenyl]-6,7-dihydropyrazolo[1,5-a]pyrazin-4-one] |  | 44.7 | 8709.6 |  |  | 1737.8 |  |  |  |
| C[C@H]1CN(c2ccc(Cl)c(Cl)c2)C(=O)c2c(-c3ccnc(F)c3)cnn21 [Co. No. 3, (7S)-5-(3,4-Dichlorophenyl)-3-(2-fluoro-4-pyridyl)-7-methyl-6,7-dihydropyrazolo[1,5-a]pyrazin-4-one] | 1819.7 | 16.2 | 9120.1 | 1819.7 | 1819.7 | 1819.7 | 170.3 |  |  |
| CNc1cc(-c2cnn3c2C(=O)N(c2ccc(S(F)(F)(F)(F)F)cc2)C[C@@H]3C)ccn1 [Co. No. 4, (7S)-7-Methyl-3-[2-(methylamino)-4-pyridyl]-5-[4-(pentafluoro-λ^6-sulfanyl)phenyl]-6,7-dihydropyrazolo[1,5-a]pyrazin-4-one] |  | 77.6 |  |  |  |  |  | 3.02 | 106 |
| CNc1cc(-c2cnn3c2C(=O)N(c2ccc(C(F)(F)F)c(OC)n2)C[C@@H]3C)ccn1 [Co. No. 5, (7S)-5-[6-Methoxy-5-(trifluoromethyl)-2-pyridyl]-7-methyl-3-[2-(methylamino)-4-pyridyl]-6,7-dihydropyrazolo[1,5-a]pyrazin-4-one] |  | 234.4 |  |  |  |  | 125.82 |  |  |
